Laboratory results taken from patent US4217274A, “Methoxyethoxymethyl esters of penicillins” (Bristol-Myers Company, priority 1978, dated 1980).
In brackets after ≈: the same amount, converted by molar mass. Read-outs that look alike come from different tables or passages of the source.

Assays:
Ps. aeruginosa = assay: MIC, antibiotic dilution technique (agar); format: cell-based; conditions: Pseudomonas aeruginosa, Table 1, Ps. aeruginosa, read-out: MIC
From the text: (§1) Bacteria. The organisms, preponderantly of recent clinical origin, were obtained from numerous sources of broad geographical distribution. Obligate anaerobes were maintained in Egg Meat Medium (Difco); Mycobacterium was stored on Lowenstein Medium (Jensen Modification; Difco). The techniques of storing all other organisms have been described previously [Leitner et al., BL-S640, A Cephalosporin with a Broad Spectrum of Antibacterial Activity: Properties in vitro, Antimicrob. Agents Chemother., 7, 298-305 (1975)].
(§2) Antibiotic spectrum. The growth-inhibitory activity of the compounds was determined by the antibiotic dilution technique. Procedures were as follows:
(§3) Aerobic organisms (excluding Mycobacterium). Except for Haemophilus and Neisseria, the assay was performed in Mueller-Hinton Medium (Difco). For fastidious organisms, i.e., Streptococcus, Listeria, Pasteurella, Bordetella and Vibrio, the medium was supplemented with 4% defibrinated sheep blood. The antibiotic susceptibility of Haemophilus and Neisseria was determined in GC Medium Base (BBL) supplemented with 1% Hemoglobin (BBL) and 1% Isovitalex (BBL).
(§4) Overnight broth cultures of an exponentially growing culture (Neisseria) served as the source of inoculum. A volume of approximately 0.003 ml. of the undiluted or diluted culture was applied to the surface of the antibiotic-containing agar plates with the inoculator of Steers et al., An Inocula Replicating Apparatus for Routine Testing of Bacterial Susceptibility to Antibiotics, Antibiot. Chemother., 9, 307-311, (1959). Cultures of Neisseria, Streptococcus pneumoniae, S. viridans and S. pyogenes were used without dilution; those of all other organisms were diluted 100-fold. The inoculum contained about 10^3 viable cells for Neisseria, 10^5 for S. pneumoniae and S. pyogenes, 10^6 for S. viridans and 10^4 for all other species.

Pr. rettgeri = assay: MIC, antibiotic dilution technique (agar); format: cell-based; conditions: Providencia rettgeri; Table 1, Pr. rettgeri
From the text: as §1, §2, §3, §4

S. aureus Meth-Res. = assay: MIC, antibiotic dilution technique (agar); format: cell-based; conditions: Staphylococcus aureus; Table 1, S. aureus Meth-Res.
From the text: as §1, §2, §3, §4

Str. faecalis = assay: MIC, antibiotic dilution technique (agar); format: cell-based; conditions: Enterococcus faecalis; Table 1, Str. faecalis
From the text: as §1, §2, §3, §4

Pr. morganii = assay: MIC, antibiotic dilution technique (agar); format: cell-based; conditions: Morganella morganii; Table 1, Pr. morganni; read-out: MIC
From the text: as §1, §2, §3, §4

K. pneumoniae [1] = assay: MIC, antibiotic dilution technique (agar); format: cell-based; conditions: Klebsiella pneumoniae, Table 1, K. pneumoniae, read-out: MIC
From the text: as §1, §2, §3, §4

Pr. vulgaris = assay: MIC, antibiotic dilution technique (agar); format: cell-based; conditions: Proteus vulgaris; Table 1, Pr. vulgaris
From the text: as §1, §2, §3, §4

Pr. mirabilis = assay: MIC, antibiotic dilution technique (agar); format: cell-based; conditions: Proteus mirabilis; Table 1, Pr. mirabilis
From the text: as §1, §2, §3, §4

S. aureus = assay: MIC, antibiotic dilution technique (agar); format: cell-based; conditions: Staphylococcus aureus
From the text: as §1, §2, §3, §4

Ser. marcescens = assay: MIC, antibiotic dilution technique (agar); format: cell-based; conditions: Serratia marcescens; Table 1, Ser. marcescens
From the text: as §1, §2, §3, §4

Ent. cloacae = assay: MIC, antibiotic dilution technique (agar); format: cell-based; conditions: Enterobacter cloacae, Table 1, Ent. cloacae, read-out: MIC
From the text: as §1, §2, §3, §4

S. aureus Pen-Res. = assay: MIC, antibiotic dilution technique (agar); format: cell-based; conditions: Staphylococcus aureus; Table 1, S. aureus Pen-Res.; read-out: MIC
From the text: as §1, §2, §3, §4

E. Coli [2] = assay: MIC, antibiotic dilution technique (agar); format: cell-based; conditions: Escherichia coli, Table 1, E. Coli
From the text: as §1, §2, §3, §4

Str. pneumoniae = assay: MIC, antibiotic dilution technique (agar); format: cell-based; conditions: Streptococcus pneumoniae; Table 1, Str. pneumoniae
From the text: as §1, §2, §3, §4

Str. pyogenes = assay: MIC, antibiotic dilution technique (agar); format: cell-based, S. pyogenes; conditions: Streptococcus pyogenes; Table 1, Str. pyogenes
From the text: as §1, §2, §3, §4

S. marcescens = assay: MIC, antibiotic dilution technique (agar), Table 4; format: cell-based
From the text: as §1, §2, §3, §4

S. faecalis = assay: MIC, antibiotic dilution technique (agar), Table 4; format: cell-based; conditions: Enterococcus faecalis; Table 4, 6 strains, geometric mean where applicable
From the text: as §1, §2, §3, §4

S. pyogenes = assay: MIC, antibiotic dilution technique (agar), Table 4; format: cell-based; conditions: Streptococcus pyogenes; Table 4, 6 strains, geometric mean where applicable
From the text: as §1, §2, §3, §4

[3] = tested on: Streptococcus sp. (β-hemolytic); assay: MIC, antibiotic dilution technique (agar), Table 4; format: cell-based; conditions: Table 4, 6 strains, geometric mean where applicable
From the text: as §1, §2, §3, §4

[4] = tested on: S. aureus (lacking penase); assay: MIC, antibiotic dilution technique (agar), Table 4; format: cell-based; conditions: Staphylococcus aureus; Table 4, 6 strains, geometric mean where applicable
From the text: as §1, §2, §3, §4

K. pneumoniae [5] = assay: MIC, antibiotic dilution technique (agar), Table 4; format: cell-based; conditions: Klebsiella pneumoniae, Table 4, K. pneumoniae, read-out: MIC
From the text: as §1, §2, §3, §4

P. rettgeri = assay: MIC, antibiotic dilution technique (agar), Table 4; format: cell-based; conditions: Providencia rettgeri
From the text: as §1, §2, §3, §4

S. viridans = assay: MIC, antibiotic dilution technique (agar), Table 4; format: cell-based; conditions: Streptococcus viridans
From the text: as §1, §2, §3, §4

E. Coli [6] = assay: MIC, antibiotic dilution technique (agar), Table 4; format: cell-based; conditions: Escherichia coli
From the text: as §1, §2, §3, §4

p. vulgaris = assay: MIC, antibiotic dilution technique (agar), Table 4; format: cell-based; conditions: Proteus vulgaris; Table 4, 2 strains, geometric mean where applicable
From the text: as §1, §2, §3, §4

P. mirabilis = assay: MIC, antibiotic dilution technique (agar), Table 4; format: cell-based; conditions: Proteus mirabilis, Table 4, P. mirabilis, geometric mean where applicable, read-out: MIC
From the text: as §1, §2, §3, §4

E. cloacae = assay: MIC, antibiotic dilution technique (agar), Table 4; format: cell-based; conditions: Enterobacter cloacae; Table 4, 2 strains, geometric mean where applicable
From the text: as §1, §2, §3, §4

S. pneumoniae = assay: MIC, antibiotic dilution technique (agar), Table 4; format: cell-based; conditions: Streptococcus pneumoniae; Table 4, 7 strains, geometric mean where applicable
From the text: as §1, §2, §3, §4

CC1(C)S[C@@H]2[C@H](N3C(=O)[C@@H](c4ccccc4)NC3(C)C)C(=O)N2[C@H]1C(=O)O [Hetacillin, hetacillin]
MIC (Ps. aeruginosa; first line): 63 µg/mL (≈ 162 µM) | MIC (Ps. aeruginosa; second line): 125 µg/mL (≈ 321 µM) | MIC (Pr. rettgeri): 8 µg/mL (≈ 20.5 µM) | MIC (S. aureus Meth-Res.): 16 µg/mL (≈ 41.1 µM) | MIC (Str. faecalis): 0.13 µg/mL (≈ 0.334 µM) | MIC (Pr. morganii): 16 µg/mL (≈ 41.1 µM) | MIC (K. pneumoniae [1]; first line): 63 µg/mL (≈ 162 µM) | MIC (K. pneumoniae [1]; second line): 63 µg/mL (≈ 162 µM) | MIC (Pr. vulgaris): 0.06 µg/mL (≈ 0.154 µM) | MIC (Pr. mirabilis): 0.03 µg/mL (≈ 0.077 µM) | MIC (S. aureus; Table 1, S. aureus): 0.008 µg/mL (≈ 0.0205 µM) | MIC (S. aureus; Table 1, S. aureus + 50% serum): 0.016 µg/mL | MIC (Ser. marcescens): 16 µg/mL (≈ 41.1 µM) | MIC (Ent. cloacae; first line): 32 µg/mL (≈ 82.2 µM) | MIC (Ent. cloacae; second line): 63 µg/mL (≈ 162 µM) | MIC (S. aureus Pen-Res.): 125 µg/mL (≈ 321 µM) | MIC (E. Coli [2]; first line): 1 µg/mL (≈ 2.57 µM) | MIC (E. Coli [2]; second line): 32 µg/mL (≈ 82.2 µM) | MIC (Str. pneumoniae): 0.004 µg/mL (≈ 0.0103 µM) | MIC (Str. pyogenes): 0.004 µg/mL (≈ 0.0103 µM)

COCCOCOC(=O)[C@@H]1N2C(=O)[C@@H](N3C(=O)[C@@H](c4ccccc4)NC3(C)C)[C@H]2SC1(C)C [RN-1492, Methoxyethoxymethyl Ester of Hetacillin]
MIC (S. marcescens; 1 strain (second line)): > 125 µg/mL | MIC (S. marcescens; Serratia marcescens, 1 strain (first line), read-out: MIC): > 125 µg/mL | MIC (S. faecalis): 2 µg/mL (≈ 4.19 µM) | MIC (S. pyogenes): 0.027 µg/mL (≈ 0.0565 µM) | MIC [3]: 0.13 µg/mL (≈ 0.272 µM) | MIC [4]: 0.18 µg/mL (≈ 0.377 µM) | MIC (K. pneumoniae [5]; 1 strain (first line)): 63 µg/mL (≈ 132 µM) | MIC (K. pneumoniae [5]; 1 strain (second line)): > 125 µg/mL | MIC (P. rettgeri; Table 4, P. retgeri, 2 strains (third line), geometric mean where applicable): 63 µg/mL (≈ 132 µM) | MIC (P. rettgeri; Table 4, P. rettgeri, 1 strain (first line)): 0.25 µg/mL (≈ 0.523 µM) | MIC (P. rettgeri; Table 4, P. rettgeri, 1 strain (second line)): 16 µg/mL (≈ 33.5 µM) | MIC (S. viridans; Table 4, S. viridans, 1 strain (second line)): 0.25 µg/mL (≈ 0.523 µM) | MIC (S. viridans; Table 4, S. viridans, 3 strains, geometric mean where applicable): 0.05 µg/mL (≈ 0.105 µM) | MIC (S. viridans; Table 4, s. viridans, 1 strain (third line)): 0.5 µg/mL (≈ 1.05 µM) | MIC (E. Coli [6]; 1 strain (first line)): 2 µg/mL (≈ 4.19 µM) | MIC (E. Coli [6]; 1 strain (fourth line)): > 125 µg/mL | MIC (E. Coli [6]; 1 strain (third line)): 63 µg/mL (≈ 132 µM) | MIC (E. Coli [6]; 3 strains (second line), geometric mean where applicable): 5 µg/mL (≈ 10.5 µM) | MIC (p. vulgaris): 0.5 µg/mL (≈ 1.05 µM) | MIC (P. mirabilis; 2 strains): > 125 µg/mL | MIC (P. mirabilis; 4 strains): 4 µg/mL (≈ 8.38 µM) | MIC (E. cloacae): > 125 µg/mL | MIC (S. pneumoniae): 0.032 µg/mL (≈ 0.067 µM) | MIC (Ps. aeruginosa; first line): 63 µg/mL (≈ 132 µM) | MIC (Ps. aeruginosa; second line): 125 µg/mL (≈ 262 µM) | MIC (Pr. rettgeri): 16 µg/mL (≈ 33.5 µM) | MIC (S. aureus Meth-Res.): 63 µg/mL (≈ 132 µM) | MIC (Str. faecalis): 0.5 µg/mL (≈ 1.05 µM) | MIC (Pr. morganii): 32 µg/mL (≈ 67 µM) | MIC (K. pneumoniae [1]; first line): 63 µg/mL (≈ 132 µM) | MIC (K. pneumoniae [1]; second line): 32 µg/mL (≈ 67 µM) | MIC (Pr. vulgaris): 0.25 µg/mL (≈ 0.523 µM) | MIC (Pr. mirabilis): 0.25 µg/mL (≈ 0.523 µM) | MIC (S. aureus; Table 1, S. aureus): 0.06 µg/mL (≈ 0.126 µM) | MIC (S. aureus; Table 1, S. aureus + 50% serum): 0.13 µg/mL | MIC (Ser. marcescens): 32 µg/mL (≈ 67 µM) | MIC (Ent. cloacae; first line): 63 µg/mL (≈ 132 µM) | MIC (Ent. cloacae; second line): 63 µg/mL (≈ 132 µM) | MIC (S. aureus Pen-Res.): > 125 µg/mL | MIC (E. Coli [2]; first line): 2 µg/mL (≈ 4.19 µM) | MIC (E. Coli [2]; second line): 63 µg/mL (≈ 132 µM) | MIC (Str. pneumoniae): 0.004 µg/mL (≈ 0.00838 µM) | MIC (Str. pyogenes): 0.008 µg/mL (≈ 0.0168 µM)
